Target: T1, Angiotensin-II-receptor (Rattus norvegicus, UniProt P25095)
T1 construct: The tissue (rat's lung) is homogenised in tris buffer; from tissue; host or cells: rat lung homogenate
T1 sequence (P25095 1-359): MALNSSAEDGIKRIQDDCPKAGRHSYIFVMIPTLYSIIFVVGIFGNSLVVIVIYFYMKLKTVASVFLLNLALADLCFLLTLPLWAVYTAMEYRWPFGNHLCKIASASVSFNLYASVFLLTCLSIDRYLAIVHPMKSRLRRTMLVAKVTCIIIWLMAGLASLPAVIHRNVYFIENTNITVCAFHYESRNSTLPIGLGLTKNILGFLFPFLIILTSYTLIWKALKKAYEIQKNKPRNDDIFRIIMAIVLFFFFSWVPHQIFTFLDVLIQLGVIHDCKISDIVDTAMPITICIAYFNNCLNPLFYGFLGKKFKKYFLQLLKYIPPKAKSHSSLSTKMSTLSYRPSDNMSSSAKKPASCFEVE
Experiment: Angiotensin-II-receptor binding (rat lung homogenate, [^125 I]-angiotensin-II displacement)
Conditions: rat's lung homogenate; 50 pM [^125 I]-angiotensin-II; 60 minutes at 37° C.; pH 7.40
Procedure: The tissue (rat's lung) is homogenised in tris buffer (50 mMol Tris, 150 mMol NaCl, 5 mMol EDTA, pH 7.40) and centrifuged twice for 20 minutes each time at 20,000×g. The resulting pellet is resuspended in incubation buffer (50 mMol Tris, 5 mMol MgCl2, 0.2% BSA, pH 7.40) 1:75, based on the moist weight of the tissue. Each 0.1 ml of homogenate is incubated for 60 minutes at 37° C. with 50 pM [^125 I]-angiotensin-II (NEN, Dreieich, FRG) and increasing concentrations of the test substance in a total volume of 0.25 ml. The incubation is terminated by rapid filtration through glass fibre filter mats. The filters are each washed with 4 ml of ice cold buffer (25 mMol Tris, 2.5 mMol MgCl2, 0.1% BSA, pH 7.40). The bound radioactivity is measured in a gamma-counter. The corresponding IC50 value is determined from the dosage-activity curve.

| Structure (SMILES) | IC50 |
| --- | --- |
| CCCc1nc2c(C)cc(-c3nc4ccccc4n3C)cc2n1Cc1ccc(-c2ccccc2S(=O)(=O)NC(=O)NC2CCCCC2)cc1 [G] | 310 nM |
| CCCc1nc2c(C)cc(-c3nc4ccccc4n3C)cc2n1Cc1ccc(-c2ccccc2C=C2SC(=O)NC2=O)cc1 [A] | 94 nM |
| CCCCc1nc2c(C)cc(N3CCCS3(=O)=O)cc2n1Cc1ccc(-c2ccccc2S(=O)(=O)NC(=O)c2ccccc2)cc1 [J] | 13.9 nM |
| CCc1nc2c(C)cc(-c3cn4c(n3)CCCC4)cc2n1Cc1ccc(-c2ccccc2NC(=O)C(F)(F)F)cc1 [E] | 28 nM |
| CCc1nc2c(C)cc(-c3cn4c(n3)CCCC4)cc2n1Cc1ccc(-c2ccccc2S(=O)(=O)O)cc1 [C] | 3.4 nM |
| CCCc1nc2c(C)cc(-c3nc4ccccc4n3C)cc2n1Cc1ccc(-c2ccccc2NC(=O)C(F)(F)F)cc1 [D] | 40 nM |
| CCCc1nc2c(C)cc(-c3nc4ccccc4n3C)cc2n1Cc1ccc(-c2ccccc2S(=O)(=O)NC(=O)NCc2ccc(OC)cc2)cc1 [F] | 110 nM |
| CCCc1nc2c(C)cc(-c3nc4ccccc4n3C)cc2n1Cc1ccc(-c2ccccc2S(=O)(=O)O)cc1 [B] | 8 nM |
| CCc1nc2c(C)cc(-c3cn4c(n3)CCCC4)cc2n1Cc1ccc(-c2ccccc2S(=O)(=O)NC(=O)NC2CCCCC2)cc1 [K] | 73 nM |
| CCc1nc2c(C)cc(-c3cn4c(n3)CCCC4)cc2n1Cc1ccc(-c2ccccc2S(=O)(=O)NC(=O)c2ccccc2)cc1 [I] | 36 nM |
| CCCc1nc2c(C)cc(-c3nc4ccccc4n3C)cc2n1Cc1ccc(-c2ccccc2S(=O)(=O)NC(=O)c2ccccc2)cc1 [H] | 78 nM |

From US5565469A, “Benzimidazoles and pharmaceutical compositions containing them” (Dr. Karl Thomae GmbH, priority 1994, dated 1996)
